Results reported in patent publication US20230286995A1, “METABOLICALLY STABLE PYRIMIDINYL DIHYDROQUINOXALINONES AS TUBULIN POLYMERIZATION INHIBITORS” (UNIVERSITY OF TENNESSEE RESEARCH FOUNDATION, priority 2022, published 2023).
Read-outs that look alike come from different tables or passages of the source.

Columns and labels:
PANC-1 = assay: Cytotoxicity assay (MTS, 72 h); type: cell-based; conditions: Homo sapiens, Table 6, read-out: IC50 (nM) Pancreatic cancer PANC-1
Procedure: Mia PaCa-2 and PANC-1 cells were seeded in 96-well plates at 4000 and 5000 cells per well, respectively.
(§1) Cytotoxicity Assay. […] Each experiment consisted of four replicates.

A375 = assay: Cytotoxicity assay (MTS, 72 h); conditions: Homo sapiens, A-375, read-out: IC50 (nM) Melanoma Cancer A375, Table 6;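 also: compounds tested from 0.1 nM up to 3 µM in four replicate wells, with absorbance read at 490 nm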
in vitro [1] = conditions: mouse, liver microsomes
A-253 cells = assay: Colony formation, head and neck cancer; type: cell-based, human
Procedure: (§2) FIG. 41A illustrates the effect of compound 12k on colony formation in the A-253 cell line. FIG. 41B illustrates the effect of compound 12k on colony formation in the Detroit 562 cell line. Colony formation experiments were performed as described elsewhere herein.

Detroit 562 cells = assay: Colony formation, head and neck cancer; type: cell-based, human
Procedure: as §2

A-253 and Detroit 562 [2] = assay: Western blot of apoptosis markers, head and neck cancer; type: cell-based, human; conditions: 100 nM, 72 hours
Text: FIG. 42A illustrates that compound 12k induces apoptosis in the A-253 cell line. FIG. 42B illustrates that compound 12k induces apoptosis in the Detroit 562 cell line.

Mia PaCa-2 = assay: Cytotoxicity assay (MTS, 72 h); type: cell-based; conditions: Homo sapiens, Table 6, read-out: IC50 (nM) Pancreatic cancer Mia PaCa-2
A-253 and Detroit 562 [3] = assay: Head and neck cancer cell proliferation (confluence %)
PC3 = assay: Cytotoxicity assay (MTS, 72 h); type: cell-based; conditions: Homo sapiens, PC-3; Table 6; read-out: IC50 (nM) Prostate cancer PC3
Text: as §1

A-253 and Detroit 562 [4] = assay: Cytotoxicity in head and neck cancer cell lines; type: cell-based; conditions: Homo sapiens; FIG. 39A; read-out: IC50 values, range over A-253 and Detroit 562
Procedure: A panel of dihydroquinoxalinones were tested in two head and neck cancer cell lines, A-253 and Detroit 562. A-253 cells are a human salivary epidermoid carcinoma cell line, whereas Detroit 562 is a head and neck squamous cell carcinoma (HNSCC). Oral cancer is the most common type of head and neck cancer and more than 90% of oral cancers are either oral or oropharyngeal squamous cell carcinoma (SCC). A major clinical dilemma is chemotherapy efficiency targeted for head and neck squamous cell carcinoma (HNSCC). The inability to successfully complete cancer treatment utilizing a standard surgical approach due to an advanced stage of HNSCC and/or resistance of SCC cells to conventional chemotherapy and/or radiotherapy leads to a continuous search for new compounds with cytostatic activity and minor side effects.
FIGS. 39B and 39C illustrate the graphical representation of the data. […] For example, at treatment levels as low of 0.5 nM, 12k was able to prevent head and neck cancer cell proliferation almost completely, whereas it required 5 nM of 17ya to achieve similar antiproliferation.

in vivo = conditions: male, NSG, mouse, brain/plasma, iv, 4 mg/kg
[5] = Pharmacokinetic evaluation of 12k in mice; type: in vivo, NSG mice; conditions: female, mouse, plasma; for half-life: NSG
Procedure: Female NSG mice at 7 to 9 weeks of age were used in pharmacokinetic studies. Mice received a single dose of 4 mg/kg 12k intravenously (50% PEG300:50% saline) or 10 mg/kg orally (90% PEG300:10% saline). Blood of animals (n=3) was collected in heparinized tubes via terminal intracardiac blood collection at predefined time points (0.08, 0.25, 0.5, 1, 3, 6, 12, 24 h) and plasma was immediately separated by centrifugation (10,000 rpm for 10 min at 4° C.) and stored at −80° C. until analysis.

M14 = assay: Cytotoxicity assay (MTS, 72 h); conditions: Homo sapiens, M14, read-out: IC50 (nM) Melanoma Cancer M14
MDA-MB-453 = assay: Cytotoxicity assay (MTS, 72 h); type: cell-based, human; conditions: Homo sapiens, MDA-MB-453; Table 6; read-out: IC50 (nM) Breast Cancer MDA-MB-453
in vitro [6] = conditions: human, liver microsomes
PC3/TxR = assay: Cytotoxicity assay (MTS, 72 h); type: cell-based; conditions: Homo sapiens, Table 6, paclitaxel-resistant, read-out: IC50 (nM) Prostate cancer PC3/TxR
Procedure: Biology. Cell culture and Reagents. […] MIA Paca-2 pancreatic cancer cells were cultured in media also supplemented with 2.5% horse serum. PANC-1 and PC-3 were cultured in RPMI 1640 medium (Gibco, Carlsbad, Calif.) supplemented with 10% FBS and 1% antibiotic/antimycotic mixture. […] For biological experiments, pyrimidine dihydroquinoxalinone derivatives were dissolved in DMSO to create 20 mM stock solutions and stored at −20° C. until use.
as §1

[7] = test system: PC-3/TxR xenograft tumors; assay: Subcutaneous PC-3/TxR xenograft model; type: in vivo
MDA-MB-231 = assay: Cytotoxicity assay (MTS, 72 h); type: cell-based; conditions: Homo sapiens, MDA-MB-231, read-out: IC50 (nM) Breast Cancer MDA-MB-231; Table 6
[8] = intravenous (4 mg/kg), NSG mice

Compound: CNc1nc2c(c(N3CC(=O)Nc4cc(OC)ccc43)n1)CCC2 [Compound 12k, 7-methoxy-4-(2-(methylamino)-6,7-dihydro-5H-cyclopenta[d]pyrimidin-4-yl)-3,4-dihydroquinoxalin-2(1H)-one]
- IC50 (PANC-1): 2.8 ± 0.5 nM
- IC50 (A375): 1.2 ± 0.2 nM
- half-life at 1 μg/mL (in vitro [1]): > 5 h
- microsomal CLint at 1 μg/mL (in vitro [1]): < 2.31 µL/min/mg
- concentration with near complete inhibition of colony formation (A-253 cells): 1 nM
- concentration with near complete inhibition of colony formation (Detroit 562 cells): 2 nM
- apoptotic markers c-PARP and c-cas 3 (A-253 and Detroit 562 [2]): elevated levels of apoptotic markers
- IC50 (Mia PaCa-2): 2.9 ± 0.5 nM
- potency of 12k relative to compound 17ya (A-253 and Detroit 562 [3]; A-253 and Detroit 562): ~10 fold
- treatment level preventing cell proliferation almost completely (A-253 and Detroit 562 [3]; confluence over 62 h): 0.5 nM
- IC50 (PC3): 0.5 ± 0.1 nM
- IC50 (A-253 and Detroit 562 [4]): 0.52 to 3.2 nM
- Kp at 1 h (in vivo): 0.45
- half-life ([5]; intravenous, 4 mg/kg, text b345, read-out: in vivo half-life): 3.97 h
- half-life ([5]; iv, 4 mg/kg, intravenous (4 mg/kg), NSG mice, read-out: t1/2 (converted)): 3.97 h
- half-life ([5]; po, 10 mg/kg, oral (10 mg/kg), NSG mice, read-out: t1/2 (converted)): 5.97 h
- AUC [5, 8]: 2890 ng·h/mL
- Cmax [5, 8]: 1250 ng/mL
- Tmax [5, 8]: 0.0833 h
- AUC ([5]; oral (10 mg/kg), NSG mice): 136 ng·h/mL
- Cmax ([5]; oral (10 mg/kg), NSG mice): 78.3 ng/mL
- Tmax ([5]; oral (10 mg/kg), NSG mice): 0.167 h
- bioavailability ([5]; oral (10 mg/kg), NSG mice): 2.02%
- IC50 (M14): 0.7 ± 0.1 nM
- IC50 (MDA-MB-453): 0.9 ± 0.2 nM
- half-life at 1 μg/mL (in vitro [6]): > 5 h
- microsomal CLint at 1 μg/mL (in vitro [6]): < 2.31 µL/min/mg
- IC50 (PC3/TxR): 0.2 nM
- inhibition of tumor growth in volume (ex vivo) vs control ([7]; 2.5 mg/kg i.v., 2 doses/week): approximately 85.6%
- reduction of tumor weight vs control ([7]; 2.5 mg/kg i.v., 2 doses/week): 84.5%
- tolerability / body weight ([7]; 2.5 mg/kg twice per week): well tolerated
- IC50 (MDA-MB-231): 2.2 ± 1.5 nM
